Experimental data from PubChem BioAssay (NCI).
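Where inhibition never reached the appropriate level, the endpoint shown equals the highest concentration tested. Otherwise, values were interpolated linearly from a five-concentration, 48-hour dose response in 96-well plates. GI50 marks 50% less growth. TGI: total growth inhibition.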

Key:
Assay in all cases: growth of human tumour cells (NCI), 48 h
[1] = system: NCI-H226 lung
[2] = system: UACC-62 melanoma
[3] = system: UO-31 renal
[4] = system: HCT-15 colon
[5] = system: SNB-19 CNS
[6] = system: SK-MEL-2 melanoma
[7] = system: ACHN renal
[8] = system: SK-MEL-28 melanoma
[9] = system: CAKI-1 renal

SMILES | TGI [1] [µM] | TGI [2] [µM] | TGI [3] [µM] | TGI [4] [µM] | TGI [5] [µM] | TGI [6] [µM] | TGI [7] [µM] | TGI [8] [µM] | TGI [9] [µM] | GI50 [1] [µM] | GI50 [2] [µM] | GI50 [3] [µM] | GI50 [4] [µM] | GI50 [5] [µM] | GI50 [6] [µM] | GI50 [7] [µM] | GI50 [8] [µM] | GI50 [9] [µM]
CCCCCCCC[N+](C)(C)Cc1ccc(C[N+](C)(C)CCCCCCCC)cc1 | > 100 | > 100 | > 100 | > 100 | > 100 | > 100 | > 100 | > 100 | > 100 | – | – | – | – | – | – | – | – | –
C=C(C)C1CC=C(C(=O)O)CC1 (stereo unspecified) | 2590 | 1450 | 4030 | 1670 | 4330 | 3220 | > 5000 | 2640 | 4080 | – | – | – | – | – | – | – | – | –
Cc1nc(NC(=S)NC(=O)c2ccc(Cl)c(Cl)c2)sc1C(=O)/C=C/c1ccccc1[N+](=O)[O-] | – | 28.5 | 45.6 | 51 | 46.9 | 44.4 | 67.4 | 78.4 | 47.3 | – | – | – | – | – | – | – | – | –
O=C1c2ccccc2C(=O)N1/N=C\c1ccc(Br)cc1 | > 100 | > 100 | > 100 | > 100 | > 100 | > 100 | > 100 | > 100 | > 10 | > 100 | > 100 | > 100 | > 100 | > 100 | > 100 | > 100 | > 100 | –
CC(=O)[CH-]C(=O)c1ccccc1.CC(=O)[CH-]C(=O)c1ccccc1.O=C([O-])C[O-].O=C([O-])C[O-].[Ti+4] | 73 | > 100 | > 100 | > 100 | > 100 | > 100 | > 100 | > 100 | > 100 | 19.4 | > 100 | 71.4 | 30.9 | 30.8 | 30.5 | 44.9 | 68.1 | 54.5
O=C(O)/C(Cl)=C(\Cl)Nc1cccc(C(F)(F)F)c1 | – | > 100 | > 100 | > 100 | – | – | > 100 | > 100 | > 100 | – | – | – | – | – | – | – | – | –
CC1(C)CCC(=O)c2c(O)ccc(O)c21 | > 100 | > 100 | > 100 | > 100 | > 100 | > 100 | – | > 100 | > 100 | – | – | – | – | – | – | – | – | –
COc1ccc2cc(C(=O)c3ccccc3C(=O)O)ccc2c1 | > 100 | > 100 | > 100 | > 100 | > 100 | > 100 | > 100 | > 100 | > 100 | – | – | – | – | – | – | – | – | –
c1cncc(C2c3[nH]c4ccccc4c3CCN2CCCN2CCCCC2)c1 (stereo unspecified) | > 100 | > 100 | > 100 | > 100 | > 100 | > 100 | > 100 | 47 | > 100 | – | – | – | – | – | – | – | – | –
CCOC(=O)C12CCCC1(O)N(NC(=O)c1cccc(Cl)c1)C(C)=C2C(=O)OC (stereo unspecified) | > 100 | > 100 | > 100 | > 100 | > 100 | > 100 | > 100 | > 100 | > 100 | – | – | – | – | – | – | – | – | –
OCCN1CCN(CCO)Cc2ccccc2OCCOc2ccccc2C1 | > 100 | – | > 100 | > 100 | > 100 | > 100 | > 100 | > 100 | > 100 | – | – | – | – | – | – | – | – | –
CCCC(OCC)(OCC)OCC | > 100 | > 100 | > 100 | > 100 | > 100 | > 100 | > 100 | > 100 | > 100 | – | – | – | – | – | – | – | – | –
C=C1C(=O)O[C@@H]2[C@H]1CC[C@H](C)[C@]1(O)CCC(=O)[C@@]21C | > 10 | > 10 | 4.76 | > 10 | > 10 | > 10 | – | > 10 | – | – | – | – | – | – | – | – | – | –
CCOC(=O)/C(=C/c1ccc(OC)c(OC)c1)C(=O)c1ccccc1 | – | 29.5 | 27.5 | 42 | 30.1 | > 100 | 68.1 | 28.5 | 31.8 | – | – | – | – | – | – | – | – | –
COC(=O)C1=CC(O)CCC1c1ccc(OC)cc1 (stereo unspecified) | > 100 | > 100 | > 100 | > 100 | > 100 | > 100 | > 100 | > 100 | > 100 | – | – | – | – | – | – | – | – | –
Cc1ccc(-c2csc(N(C(=O)N3CCN(c4cc5c(cc4F)c(=O)c(C(=O)O)cn5C4CC4)CC3)c3ccccc3)n2)cc1 | > 100 | – | – | – | > 60 | 1.75 | > 100 | > 100 | > 100 | 0.338 | – | – | – | 0.383 | 0.344 | 0.278 | 0.582 | 0.373

SMILES | TGI [1] [µM] | TGI [2] [µM] | TGI [3] [µM] | TGI [4] [µM] | TGI [5] [µM] | TGI [6] [µM] | TGI [7] [µM] | TGI [8] [µM] | TGI [9] [µM] | GI50 [1] [µM] | GI50 [2] [µM] | GI50 [3] [µM] | GI50 [4] [µM] | GI50 [5] [µM] | GI50 [6] [µM] | GI50 [7] [µM] | GI50 [8] [µM] | GI50 [9] [µM]
Cc1cc(C)c(C(=O)O)c(N)c1O | > 100 | > 100 | > 100 | > 100 | > 100 | > 100 | > 100 | > 100 | > 100 | – | – | – | – | – | – | – | – | –
CSc1nc(NC2OCC(OC(C)=O)C(OC(C)=O)C2OC(C)=O)c(N=CC=Nc2c(NC3OCC(OC(C)=O)C(OC(C)=O)C3OC(C)=O)nc(SC)n(C)c2=O)c(=O)n1C (stereo unspecified) | – | > 100 | > 100 | > 100 | > 100 | > 100 | > 100 | > 100 | – | – | – | – | – | – | – | – | – | –
COc1ccc2[nH]c3c4c(c5cc(C(C)(C)C)ccc5c3c2c1)C(=O)N(c1ccccc1)C4=O | > 100 | > 100 | > 100 | – | > 100 | > 100 | – | > 100 | > 100 | – | – | – | – | – | – | – | – | –
COc1cc(C(=O)C/C(CCC(=O)Nc2ccccc2[N+](=O)[O-])=N\NC(=O)C(N)=O)ccc1O | > 100 | > 100 | > 100 | > 100 | > 100 | > 100 | > 100 | > 100 | > 100 | – | – | – | – | – | – | – | – | –
CC(=O)CC(=O)N(CCN(C(=O)CC(C)=O)c1ccccc1)c1ccccc1 | > 100 | > 100 | > 100 | – | > 100 | > 100 | > 100 | > 100 | > 100 | – | – | – | – | – | – | – | – | –
CSc1ccc(-c2cn3ccsc3n2)c(O)c1 | > 100 | > 100 | > 100 | > 55.8 | > 100 | > 100 | > 100 | > 100 | > 100 | – | – | – | – | – | – | – | – | –
CCCCCCCCCOC(=S)NC | – | 53.9 | 23.2 | 36.1 | > 100 | 41 | 37.6 | 58.5 | 43.1 | – | – | – | – | – | – | – | – | –
CN1CCC23c4c5ccc(O)c4OC2C(=NN=C2CCC4(O)C6Cc7ccc(O)c8c7C4(CCN6C)C2O8)CCC3(O)C1C5 (stereo unspecified) | > 100 | > 100 | > 100 | > 100 | > 100 | > 100 | > 100 | > 100 | > 100 | – | – | – | – | – | – | – | – | –
COc1cccc(/C=C(/C(=O)O)c2cc(OC)c(OC)c(OC)c2)c1 | > 100 | > 100 | > 100 | > 100 | > 100 | – | > 100 | > 100 | > 100 | – | – | – | – | – | – | – | – | –
CC1(C)CC23C(=O)N(c4ccccc4)C(=Nc4ccccc4)NC2=CC(C#N)=C(C#N)C3O1 (stereo unspecified) | 88.8 | > 100 | > 100 | > 100 | > 100 | > 100 | > 100 | > 100 | > 100 | – | – | – | – | – | – | – | – | –
C/C(=N\O)c1sc(-n2nc(-c3ccccc3)cc2-c2ccccc2)nc1C | 17.6 | 16.9 | 15.3 | 22.9 | 17.9 | > 65.6 | 19.6 | 17.8 | 27.3 | – | – | – | – | – | – | – | – | –
CCc1ccccc1NC(=O)/C(CC(=O)c1c(C)n([O-])c2ccccc2[n+]1=O)=N\NS(=O)(=O)c1ccc(C)cc1 | > 100 | 67 | > 100 | > 100 | > 100 | > 100 | > 100 | > 100 | – | – | – | – | – | – | – | – | – | –
COC1=CC(=O)c2ccc(C(C)C)cc2C1(C)C1=NC(C)(C)CO1 (stereo unspecified) | > 100 | > 100 | > 100 | > 100 | > 100 | > 100 | > 100 | > 100 | > 100 | – | – | – | – | – | – | – | – | –
CCOC(=O)C1Cc2c(ccc(OC)c2OC)C(=O)C1N (stereo unspecified) | > 100 | > 100 | > 100 | > 100 | > 100 | > 100 | > 100 | > 100 | > 100 | – | – | – | – | – | – | – | – | –
C[C@]12CCC[C@H](OC=O)C1(O)C[C@H](C(=O)O)CC2 (stereo partly specified) | > 100 | 32.5 | > 100 | > 100 | > 100 | > 100 | > 100 | > 100 | > 100 | – | – | – | – | – | – | – | – | –
CC[O-].CC[O-].[O-]c1ccccc1C=Nc1ccccc1.[O-]c1ccccc1C=Nc1ccccc1.[Ti+4] | > 100 | > 100 | > 100 | – | > 100 | – | > 100 | > 100 | > 100 | > 100 | > 100 | > 100 | – | > 100 | – | 23.8 | > 100 | 85.1
